Test results reported in PMC3393737 (PLoS ONE, 2012).
Structures can show the parent of a compound that is named as a salt.

Target: T1, ABCB6 (ABCB6-flag) (Homo sapiens, UniProt Q9NP58)
T1 construct: wild-type ABCB6, C-terminal FLAG tag kept; stably expressed (CMV promoter) in K562 cells (whole cells, mitochondria)
T1 sequence (Q9NP58 1-842): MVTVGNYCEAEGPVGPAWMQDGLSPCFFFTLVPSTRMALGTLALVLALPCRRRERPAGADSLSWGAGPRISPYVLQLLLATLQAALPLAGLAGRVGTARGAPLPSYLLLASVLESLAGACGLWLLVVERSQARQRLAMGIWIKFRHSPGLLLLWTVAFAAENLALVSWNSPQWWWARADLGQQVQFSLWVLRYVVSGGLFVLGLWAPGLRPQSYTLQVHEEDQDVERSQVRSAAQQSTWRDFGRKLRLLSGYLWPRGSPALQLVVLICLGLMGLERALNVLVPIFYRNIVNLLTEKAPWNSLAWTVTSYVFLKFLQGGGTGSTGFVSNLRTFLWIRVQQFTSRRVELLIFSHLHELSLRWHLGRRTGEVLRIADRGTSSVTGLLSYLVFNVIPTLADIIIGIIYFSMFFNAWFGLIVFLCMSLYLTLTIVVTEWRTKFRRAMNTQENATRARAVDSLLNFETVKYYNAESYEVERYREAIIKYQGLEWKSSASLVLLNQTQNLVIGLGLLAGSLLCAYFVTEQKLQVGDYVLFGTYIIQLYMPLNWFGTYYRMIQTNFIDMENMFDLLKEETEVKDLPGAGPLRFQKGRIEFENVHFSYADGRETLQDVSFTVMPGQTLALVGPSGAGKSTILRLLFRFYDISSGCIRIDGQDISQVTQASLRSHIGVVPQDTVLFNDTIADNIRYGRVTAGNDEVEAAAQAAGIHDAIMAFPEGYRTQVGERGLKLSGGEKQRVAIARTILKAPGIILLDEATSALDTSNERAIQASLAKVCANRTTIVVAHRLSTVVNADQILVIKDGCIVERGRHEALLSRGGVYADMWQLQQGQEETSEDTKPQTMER
Assay: displacement of ABCB6 from hemin-agarose (mitochondrial fraction; dose dependent also with purified ABCB6-flag)
Format: binding

Q: How did the inhibition at 5 µM turn out when `C[C@H]1CC[C@]2(NC1)O[C@H]1C[C@H]3[C@@H]4CC[C@H]5C[C@@H](O[C@@H]6O[C@H](CO)[C@H](O[C@@H]7O[C@H](CO)[C@@H](O)[C@H](O[C@@H]8OC[C@@H](O)[C@H](O)[C@H]8O)[C@H]7O[C@@H]7O[C@H](CO)[C@@H](O)[C@H](O)[C@H]7O)[C@H](O)[C@H]6O)CC[C@]5(C)[C@H]4CC[C@]3(C)[C@H]1[C@@H]2C` [THC, tomatine hydrochloride] was run?
A: The inhibition at 5 µM was over 50%.
